Measured values: patent US20150079176A1, “ANTI-OXIDANT SYNERGY FORMULATION NANOEMULSIONS TO TREAT CANCER” (University of Massachusetts Lowell, priority 2005, published 2015)

Key:
HTB-20 = HTB-20 cell culture growth (Coulter Counter cell counting); format: cell-based, Human
Description: (§1) Human breast cancer cell lines MCF-7 and HTB-20 were subcultured in flasks accompanied by daily changes of medium comprising RPMI 1640 supplemented with fetal bovine serum (10%, v/v). The cultures were maintained in a humidified chamber at 37° C. with 5% CO2 and 95% air. The cells were harvested at confluency by trypsinzation and suspended at a cell density of 200,000 to 300,000 cells/ml in a small volume of the growth medium to be used.
(§2) In a typical experiment in which the effects of the anti-cancer nanoemulsions on cell growth were to be examined, aliquots of the cell suspension containing about 20,000 to 30,000 cells were replicately plated in dishes containing 3 ml of the growth medium consisting of RPMI 1640 supplemented with charcoal-stripped fetal bovine serum (5%, v/v) and of penicillin-streptomycin (10 units and 10 μg, respectively) and mycostatin (2.5 units/ml) and incubated at 37° C. in the humidified chamber. On day 1 when the cell adhered firmly to the bottom surface of the dishes, the medium was aspirated off and the cells then challenged by the anti-cancer nanoemulsions; groups of replicate dishes received 3 ml of fresh growth medium containing either ASF or tamoxifen at the indicated concentrations. The control groups received only the microfluidized nanoemulsion and ASF or tamoxifen in free solution.
(§3) At various time intervals (i.e., Days 1-17), triplicate dishes were withdrawn for cell counting; after removal of the medium by aspiration, the adhered cells were washed twice with 1 ml of Eagles balanced salt solution without Ca^2+ and Mg^2+ and dislodged from the dish by trypsinization involving the incubation of 0.5 ml of trypsin-EDTA solution (IX) for 5 minutes at 37° C., after which the protease reaction was stopped by adding 2.5 ml of a “stop” medium consisting of RPMI 1640 and 5% fetal calf serum. The cells were then collected by centrifugation with subsequent suspension in the medium. An aliquot of the suspension was subjected to cell counting using a Coulter Counter (data expressed as 10^6 cells per dish).

MCF-7 = MCF-7 cell culture growth (Coulter Counter cell counting); format: cell-based, Human
Description: as §1, §2, §3

`CC/C(=C(\c1ccccc1)c1ccc(OCCN(C)C)cc1)c1ccccc1` [Tamoxifen In Free Solution, tamoxifen] was tested, and the cell count (HTB-20; HTB-20, 1 day of incubation) was 4 106 cells per dish, the cell count (HTB-20; HTB-20, 3 days of incubation) was 12 106 cells per dish and the cell count (HTB-20; HTB-20, 5 days of incubation) was 24 106 cells per dish. For the same compound, the cell count (HTB-20; HTB-20, 7 days of incubation) was 28 106 cells per dish, the cell count (HTB-20; HTB-20, 10 days of incubation) was 41 106 cells per dish and the cell count (HTB-20; HTB-20, 12 days of incubation) was 51 106 cells per dish. For the same compound, the “improvement of time-course of tamoxifen-induced apoptosis” value (HTB-20; HTB-20, applied as a microfluidized nanoemulsion vs free solution) was 2-10 fold, the cell count (MCF-7; MCF-7, 5 days of incubation) was 5 106 cells per dish and the cell count (MCF-7; MCF-7, 8 days of incubation) was 19 106 cells per dish. The cell count (MCF-7; MCF-7, 10 days of incubation) was 25 106 cells per dish, the cell count (MCF-7; MCF-7, 12 days of incubation) was 33 106 cells per dish and the cell count (MCF-7; MCF-7, 15 days of incubation) was 50 106 cells per dish. For the same compound, the cell count (MCF-7; MCF-7, 17 days of incubation) was 67.5 106 cells per dish and the “improvement of time-course of tamoxifen-induced apoptosis” value (MCF-7; MCF-7, applied as a microfluidized nanoemulsion vs free solution) was 2-10 fold.
